Test system: IL-6 mRNA in HPBMCs
Experiment: IL-6 gene expression in HPBMCs, real-time PCR
Type: cell-based, human
Conditions: 1 μM SD, 6 hours
Protocol: FIG. 2(a) illustrates both the effect of CRP on IL-6 secretion from HPBMCs and its modulation by a p38 inhibitor. 8×10^5 HPBMCs were plated in 96-well. After 1 hour medium was removed and cells were incubated with or without 10 μg/ml of purified human CRP in serum-free RPMI 1640. In parallel experiments cells were treated with 10% FCS together with the CRP treatment. For the p38 antagonism, the p38 inhibitor was added to a final concentration of 1 μM in the parallel treatment. After 6 hours the conditioned medium was collected and IL-6 and IL-8 levels were determined by ELISA. FIG. 2(b) illustrates the effects of p38 inhibitor concentration on CRP induced IL-6 secretion from HPBMCs. 3×10^5 HPBMCs were plated in 96-well. After 1 hour medium was removed and cells were incubated with 10 μg/ml of purified human CRP plus 10% FCS in the presence of varying concentrations of p38 inhibitor. After 4 hours conditioned medium were collected and IL-6 level was determined by ELISA. […] After 6 hours RNA was extracted from the cells and IL-6 expression level was determined by real-time PCR as described in Experimental section. […]
RNA was extracted from the cells using Qiagen RNA extraction kit according to the manufacturer's instruction. The expression of pro-inflammatory genes IL-1β, IL-6, IL-8, TNFα, COX-2, ET-1, TF were assessed by real-time PCR. […]

## C[C@@H]1CN(Cc2ccc(F)cc2)[C@@H](C)CN1C(=O)c1cc2c(C(=O)C(=O)N(C)C)c[nH]c2cc1Cl [Compound 162]
  inhibition of FCS invoked IL-6 mRNA expression: almost completely blocked
CRP plus 10% FCS
  inhibition of CRP invoked IL-6 mRNA expression: almost completely blocked

From patent publication US20060019971A1, “Treatment of cardiovascular disease with inhibitors of p38 kinase” (priority 2003, published 2006)
